The source of these data is patent publication US6419922B1, “Candida saitoana compositions for biocontrol of plant postharvest decay” (Biotechnology Research and Development Corporation, priority 1998, dated 2002).

For test [1], the system named is Penicillium digitatum. Description: Natural infection of orange and lemon fruit, semi-commercial on line spray treatment. The format is in vivo. The following applies: line spray within 48 hours after harvest, 50-55° F., after 3 weeks. The source says:
Additional tests were also done to determine the effect of different combinations of biochemicals and microorganisms on natural infections of citrus fruit. Orange and lemon fruit from field bins were washed on line following standard commercial practices [Standard Pre Chlorine was (50 ppm); size and color blemish sorting, and randomized]. Thereafter the fruit was washed and treated with either water, a yeast cell suspension containing 0.1% lysozyme, or Imazalil using an on line spray system. Each treatment consisted of at least 8 to 13 boxes of fruit; each box representing a replicate of approximately 60 to 100 fruit. The fruit was held at 50-55° F. and the percentage of decay was determined after 3 weeks.

In the next test the test system is Candida saitoana. The test can be described thus: Survival of Candida saitoana in enzyme solutions (yeast maltose broth). The format is cell-based. The conditions noted are these: for Yeast Cell Counts (CFU/ml) 1 day / Yeast Cell Counts (CFU/ml) 4 days: inoculated with 10^4 yeast cells/ml, yeast maltose broth. As to the method:
The effect of lysozyme and lyticase on the survival of C. saitoana in yeast maltose broth was also determined. Culture flasks containing sterile solutions of 0.2% yeast maltose broth were amended with membrane-sterilized solutions of lysozyme and lyticase to obtain a concentration of 0.1% and 0.6% of lysozyme and lyticase, respectively. Each flask was started with approximately 10^4 colony forming units (CFU) of yeast and the flasks were incubated on an orbital shaker set at 200 rpm. Samples were collected and dilution-plated in duplicate on yeast-maltose agar medium. The plates were incubated 24° C. and colonies were counted after 48 h.

The test system of test [2] is Penicillium digitatum. The test can be described thus: Protective effect on decay of wounded orange and lemon fruit, treated then challenge inoculated. The conditions noted are these: wounds treated then inoculated with 20 μL P. digitatum 10^4 conidia/ml, 7 days at 24° C. The format is in vivo. As to the method:
(§1) Yeast cells from 48 hour old cultures of C. saitoana were pelleted by centrifugation, resuspended in sterile distilled water, and centrifuged. Pellets were suspended in water, 0.01% and 0.1% lysozyme of 0.6% lyticase, and the concentration of the yeast suspension was adjusted to 10^8 CFU/ml.
(§2) Apple, orange, and lemon fruit were individually wounded and each wound was treated with fifty microliters of one of the following treatments:
yeast cell suspension (C. saitoana);
yeast cell suspension containing 0.01% or 0.1% lysozyme;
yeast cell suspension containing 0.6% lyticase;
(§3) Fruit wounds were either treated with the different treatments and then inoculated with 20 μL of a pathogen spore suspension to determine protective effects, or inoculated with a pathogen spore suspension and 24 hours later were treated with the different treatments to determine curative effects. Apple wounds were inoculated (i.e., pathogens were placed in the wound) with the pathogens B. cinerea and P. expansum, whereas orange and lemon wounds were inoculated with P. digitatum. Treated fruit were incubated at 24° C. in plastic trays at high humidity. For each treatment, 20 to 100 fruit were arranged in a randomized complete block design. Percent infection was determined for each treatment after 7 days of storage. The tests were repeated twice. […] The effect was greater than for either agent alone.

The next test relates to P. digitatum. The test can be described thus: Curative effect on established infection of citrus fruit (treated 24 hours after inoculation). The following applies: treatment 24 hours after inoculation. It counts as in vivo, Penicillium digitatum. As to the method:
as §1, §2, §3
(§4) In the past, the lack of curative activity has been identified as a major limitation of biological approaches to pathogen control.

For another test, the system named is Botrytis cinerea. Description: Inhibition of spore germination in 24-well microtiter dish. It counts as cell-based. The conditions noted are these: for Inhibition of Germination (%) Botrytis cinerea: five hundred spores per well, 0.2% maltose extract broth, 24° C., after 24 hours. As to the method: The inhibitory activity of antifungal enzymes, in this example, lysozyme and lyticase, against the pathogen Botrytis cinerea, was determined in a 24-well microtiter dish. Autoclaved solutions of 0.2% maltose extract broth were amended with membrane-sterilized solutions of lysozyme and lyticase to obtain a concentration of 0.1% and 0.5% of lysozyme and lyticase, respectively. One hundred microliters of the enzyme solution was dispensed into each well. Each well was inoculated with five hundred spores of B. cinerea. Four replicates of eight wells were used for each treatment. Microtiter dishes were incubated in the dark at 24° C. Percent spore germination was determined after 24 hours. Spores were inhibited by either enzyme.

A further test deals with P. expansum. Description: Curative effect on established infection of apple fruit (treated 24 hours after inoculation). It counts as in vivo, Penicillium expansum. The conditions noted are these: treatment 24 hours after inoculation. As to the method: as §1, §2, §3, §4

Take `C=CCOC(Cn1ccnc1)c1ccc(Cl)cc1Cl` (stereo not shown) [Imazalil]: in the test on Penicillium digitatum [1] (lemon), the “Infected Fruit (%) Penicillium digitatum Lemon” value worked out at 4.6b %. Also, in the test on Penicillium digitatum [1] (orange), the “Infected Fruit (%) Penicillium digitatum Orange” value turned out to be 2.4b %.

Consider lysozyme, for which, in the test with Candida saitoana, the “Effect on growth / survival of the yeast C. saitoana (in words)” value was “no effect”, the “Yeast Cell Counts (CFU/ml) 1 day” value was >2.0 × 10^5 CFU/ml and the “Yeast Cell Counts (CFU/ml) 4 days” value was >2.0 × 10^5 CFU/ml. Further, in the test with Penicillium digitatum [2], the “Infected Fruit (%) Penicillium digitatum Lemon” value was 86b % and the “Infected Fruit (%) Penicillium digitatum Orange” value is on record as 88%. For the same compound, the “Infected Fruit (%) Penicillium digitatum Orange” value in the test with Penicillium digitatum [2] (listed as 0.01% lysozyme) came out at 88b %. In the test on P. digitatum, the “Effect on established infection caused by P. digitatum (in words)” value is “little effect”. Besides, in the test on Botrytis cinerea, the “Inhibitory activity against Botrytis cinerea spores (in words)” value is given as “inhibitory” and the “Inhibition of Germination (%) Botrytis cinerea” value was determined as 100%. In addition, the “Effect on established infection caused by P. expansum (in words)” value in the test with P. expansum was “little effect”.

With lyticase, in the test on Candida saitoana, the “Effect on growth / survival of the yeast C. saitoana (in words)” value was “no effect”, the “Yeast Cell Counts (CFU/ml) 1 day” value is >2.0 × 10^5 CFU/ml and the “Yeast Cell Counts (CFU/ml) 4 days” value is on record as >2.0 × 10^5 CFU/ml. Also, in the test on Penicillium digitatum [2], the “Infected Fruit (%) Penicillium digitatum Lemon” value was found to be 85b % and the “Infected Fruit (%) Penicillium digitatum Orange” value came out at 88%. For the same compound, the “Infected Fruit (%) Penicillium digitatum Orange” value in the test on Penicillium digitatum [2] (listed as 0.1% lyticase) was 88b %. Besides, the “Effect on established infection caused by P. digitatum (in words)” value with P. digitatum was “little effect”. Also, in the test on Botrytis cinerea, the “Inhibitory activity against Botrytis cinerea spores (in words)” value is “inhibitory” and the “Inhibition of Germination (%) Botrytis cinerea” value is 100%. Besides, the “Effect on established infection caused by P. expansum (in words)” value in the test with P. expansum was “little effect”.
